How the values were obtained:
Format in all cases: physicochemical
[1] = Particle size distribution by dynamic light scattering (micelle formation); settings: DLS
Method: In a test tube, surfactin sodium salt (hereinafter, referred to as “SFNa”) and methanol (5 mL) or ethanol (5 mL) were added so that SFNa concentration became 2 mass %. The mixture was stirred using a vortex mixer for 3 minutes. A particle size distribution of the particles which were contained in each obtained dispersion was measured using a dynamic light scattering measuring device (product name: DLS-7000, manufactured by OTSUKA ELECTRON Co., Ltd.). In the measurement, Ar laser (λ=488 nm) was used as a light source and a scattering angle was adjusted to 90°. The result of the methanol dispersion is shown by FIG. 1 and the result of the ethanol dispersion is shown by FIG. 2.
First, an association behavior of SFNa was evaluated by a dynamic light scattering method as the above-described Example 1. As FIG. 4, a micelle having an average particle diameter of 44.8±7.7 nm was observed.

[2] = Surface tension measurement at 25° C. (DY-500); settings: for surface tension reducing ability: 2 mass % in 20 vol % ethanol aqueous solution
Method: Then, an experiment for confirmation of effect of reducing surface free energy by SFNa in organic solvent was carried out. Specifically, SFNa and diethylene glycol (10 mL) was added in a test tube so that SFNa concentration became 2 mass % similarly to the above-described Example 1. The mixture was stirred using a vortex mixer for 3 minutes. The dispersion was transferred to a petri dish and left to stand. The surface tension was measured at 25° C. using a high function surface tension measuring device (“DY-500”, manufactured by Kyowa Interface Science Co., Ltd.). In addition, the surface tensions of diethylene glycol only and 2 mass % diethylene glycol solution of sodium dodecyl sulfate, i.e. “SDS”, were similarly measured as control.
An experiment for confirmation of effect of reducing surface free energy by SFNa in a mixed solvent of water and a water-miscible solvent was also carried out. Specifically, SFNa and 20 vol % ethanol aqueous solution (10 mL) was added in a test tube so that SFNa concentration became 2 mass % similarly to the above-described Example 1. The mixture was stirred using a vortex mixer for 3 minutes. In addition, 2 mass % SDS solution was obtained as control by dissolving SDS in 20 vol % ethanol aqueous solution.
In addition, the surface tension reducing ability of SFNa and SDS in 20 vol % ethanol aqueous solution was evaluated at 25° C. similarly to the above-described Example 2.
Furthermore, surface tension was measured similarly to the above-described Example 2 except that the organic solvent was changed from diethylene glycol to dimethylsulfoxide, i.e. DMSO.
An experiment for confirmation of effect of reducing surface free energy by SFNa in a mixed solvent which contained acetone as a water-miscible solvent was also carried out, since the secondary structure formation was confirmed in the above-described Example 5. Specifically, SFNa and 20 vol % or 50 vol % acetone aqueous solution (10 mL) were added in a test tube so that SFNa concentration became 1 mass % similarly to the above-described Example 1. The mixture was stirred using a vortex mixer for 3 minutes. In addition, 1 mass % SDS solution was obtained as control by dissolving SDS in 20 vol % or 50 vol % acetone aqueous solution. The dispersion was transferred to a petri dish and left to stand similarly to the above-described Example 2. The surface tension was measured at 25° C. using a high function surface tension measuring device (“DY-500”, manufactured by Kyowa Interface Science Co., Ltd.).

[3] = Secondary structure formation by circular dichroism dispersion meter
Method: Similarly to the above-described Example 1, SFNa and acetone (5 mL) was added in a test tube. The mixture was stirred using a vortex mixer for 3 minutes in order to prepare 0.1 mass %, 0.5 mass % or 1 mass % SFNa solution in acetone. Then, secondary structure formation of SFNa in the prepared acetone solutions was measured using a circular dichroism dispersion meter (“J-820”, manufactured by JASCO Corporation).
Similarly to the above-described Example 5, methanol (1 mL) and SFNa were measured off in a test tube, and the mixture was stirred using a vortex mixer for 3 minutes in order to prepare 0.01 to 1 mass % SFNa solutions in methanol. Then, secondary structure formation of SFNa in the prepared […] solutions was measured using a circular dichroism dispersion meter (“J-820”, manufactured by JASCO Corporation).
Similarly to the above-described Example 5, ethanol (1 mL) and SFNa were measured off in a test tube, and the mixture was stirred using a vortex mixer for 3 minutes in order to prepare 0.05 to 1 mass % SFNa solutions in ethanol. Then, secondary structure formation of SFNa in the prepared ethanol solutions was measured using a circular dichroism dispersion meter (“J-820”, manufactured by JASCO Corporation).
Similarly to the above-described Example 5, tetrahydrofuran (1 mL) and SFNa were measured off in a test tube, and the mixture was stirred using a vortex mixer for 3 minutes in order to prepare 0.5 mass % or 1 mass % SFNa solutions in tetrahydrofuran. Then, secondary structure formation of SFNa in the prepared tetrahydrofuran solutions was measured using a circular dichroism dispersion meter (“J-820”, manufactured by JASCO Corporation).

[4] = Standing for one day at 25° C. and polarization microscope observation of deposits
Method: In addition, the above each dispersion was left to stand for one day at 25° C. […] The depositions were observed using a polarization microscope (“ECLIPSE E600”, manufactured by NIKON CORPORATION). The result is shown as FIG. 3. […] A lamellar liquid crystal may incorporate both of a hydrophilic substance and a lipophilic substance inside, since a lamellar liquid crystal has both of a hydrophilic part and a lipophilic part.

[5] = 2 mass % in 20 vol % ethanol aqueous solution
[6] = 1 mass % in 20 vol % acetone aqueous solution
[7] = 1 mass % in 50 vol % acetone aqueous solution

| Compound | micelle observation [1, 5] | surface tension reducing effect [2, 6] | surface tension reducing effect [2, 7] | surface tension reducing ability [2] | Surface tension ([2]; 2 mass % in DMSO) | Surface tension ([2]; 2 mass % in diethylene glycol) | secondary structure formation (CD, negative peak near 200 nm) ([3]; 0.01 to 1 mass % in methanol) | secondary structure formation (CD, negative peak near 200 nm) ([3]; 0.05 to 1 mass % in ethanol) | secondary structure formation (CD, negative peak near 200 nm) ([3]; 0.1, 0.5 or 1 mass % in acetone) | secondary structure formation (CD, negative peak near 200 nm) ([3]; 0.5 or 1 mass % in tetrahydrofuran) | average particle diameter of micelle [1, 5] | average particle diameter of micelle ([1]; 2 mass % in ethanol) | average particle diameter of micelle ([1]; 2 mass % in methanol) | appearance of dispersion after standing ([4]; 2 mass % ethanol dispersion) | polarization microscope observation of deposits ([4]; 2 mass % ethanol dispersion) | appearance of dispersion after standing ([4]; 2 mass % methanol dispersion) |
| --- | --- | --- | --- | --- | --- | --- | --- | --- | --- | --- | --- | --- | --- | --- | --- | --- |
| CCCCCCCCCCCCOS(=O)(=O)[O-].[Na+] [SDS, sodium dodecyl sulfate, reference compound] | a micelle cannot be observed | reduced the surface tension | could not reduce the surface tension | could not reduce the surface tension | 43.4 mN/m | 44.5 mN/m |  |  |  |  |  |  |  |  |  |  |
| surfactin sodium salt [SFNa] |  | clearly superior to SDS | the surface tension could be clearly reduced | could clearly reduce the surface tension | 39.2 mN/m | 39.6 mN/m | forms secondary structure | forms secondary structure | forms secondary structure | forms secondary structure | 44.8±7.7 nm | 956.8±286.5 nm | 1035.1±230.7 nm | there were deposits | a Maltese Cross image which is characteristic of lamellar liquid crystal was observed | remained transparent |

Source: patent US20160193131A1, “METHOD FOR REDUCING SURFACE FREE ENERGY AND COMPOSITION HAVING REDUCED SURFACE FREE ENERGY” (KANEKA CORPORATION, priority 2013, published 2016)
